# Reference: PubChem BioAssay AID1963866 (Molecular Pharmacology Branch, DTP, NCI, 2024)
# Test system: PDC KRAS tumor spheroids with HUVEC/MSC, viability
# Test: Anticancer human tumor 349418-098-R-PDC patient-derived lung adenocarcinoma cell line growth inhibition [KRAS2]
# Conditions: for IC50: curve of first compound; for viability, T/C: stronger effect = lower value
# Summary of the method: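 Combination screen of spheroid viability in tumor-cell co-cultures with endothelial (HUVEC) and mesenchymal stem cell stroma. Each agent was tested in half-log dilutions, topping at clinical Cmax or at 10 microM without a known Cmax.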
# [1] = second compound 0.1 µM, first compound 0.0316 µM
# [2] = second compound 0.1 µM, first compound 0.1 µM
# [3] = second compound 0.1 µM, first compound 0.316 µM
# [4] = second compound 0.1 µM, first compound 1 µM
# [5] = second compound 0.1 µM, first compound 3.16 µM
# [6] = second compound 0.1 µM, first compound 10 µM
# [7] = second compound 0.316 µM, first compound 0.0316 µM
# [8] = second compound 0.316 µM, first compound 0.1 µM
# [9] = second compound 0.316 µM, first compound 0.316 µM
# [10] = second compound 0.316 µM, first compound 1 µM
# [11] = second compound 0.316 µM, first compound 3.16 µM
# [12] = second compound 0.316 µM, first compound 10 µM
# [13] = second compound 1 µM, first compound 0.0316 µM
# [14] = second compound 1 µM, first compound 0.1 µM
# [15] = second compound 1 µM, first compound 0.316 µM
# [16] = second compound 1 µM, first compound 1 µM
# [17] = second compound 1 µM, first compound 3.16 µM
# [18] = second compound 1 µM, first compound 10 µM
# [19] = second compound 3.16 µM, first compound 0.0316 µM
# [20] = second compound 3.16 µM, first compound 0.1 µM
# [21] = second compound 3.16 µM, first compound 0.316 µM
# [22] = second compound 3.16 µM, first compound 1 µM
# [23] = second compound 3.16 µM, first compound 3.16 µM
# [24] = second compound 3.16 µM, first compound 10 µM
# [25] = second compound 10 µM, first compound 0.0316 µM
# [26] = second compound 10 µM, first compound 0.1 µM
# [27] = second compound 10 µM, first compound 0.316 µM
# [28] = second compound 10 µM, first compound 1 µM
# [29] = second compound 10 µM, first compound 3.16 µM
# [30] = second compound 10 µM, first compound 10 µM
# 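Note: spheroids exposed to compounds for seven days before readout.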
smiles,measurement,setting,value
CCNC(=O)CC1N=C(c2ccc(Cl)cc2)c2cc(OC)ccc2-n2c(C)nnc21 (stereo not given) + C=CC(=O)N1CCN(c2nc(=O)n(-c3c(C)ccnc3C(C)C)c3nc(-c4c(O)cccc4F)c(F)cc23)C(C)C1,IC50,second compound 0.1 µM,133 nM
same,IC50,second compound 0.316 µM,139 nM
same,IC50,second compound 1 µM,185 nM
same,IC50,second compound 3.16 µM,140 nM
same,IC50,second compound 10 µM,< 31.6 nM
same,"viability, T/C",[1],84.2%
same,"viability, T/C",[2],55.5%
same,"viability, T/C",[3],31.9%
same,"viability, T/C",[4],11.2%
same,"viability, T/C",[5],1.81%
same,"viability, T/C",[6],0.76%
same,"viability, T/C",[7],83%
same,"viability, T/C",[8],54%
same,"viability, T/C",[9],37%
same,"viability, T/C",[10],11.2%
same,"viability, T/C",[11],1.1%
same,"viability, T/C",[12],0.76%
same,"viability, T/C",[13],78.3%
same,"viability, T/C",[14],60.4%
same,"viability, T/C",[15],41.4%
same,"viability, T/C",[16],6.68%
same,"viability, T/C",[17],2.48%
same,"viability, T/C",[18],0.75%
same,"viability, T/C",[19],69.9%
same,"viability, T/C",[20],52.9%
same,"viability, T/C",[21],37.9%
same,"viability, T/C",[22],9.47%
same,"viability, T/C",[23],2.07%
same,"viability, T/C",[24],0.56%
same,"viability, T/C",[25],44.4%
same,"viability, T/C",[26],28.8%
same,"viability, T/C",[27],6.81%
same,"viability, T/C",[28],2.7%
same,"viability, T/C",[29],1.1%
same,"viability, T/C",[30],0.62%
CC(=O)Nc1cccc(-n2c(=O)n(C3CC3)c(=O)c3c(Nc4ccc(I)cc4F)n(C)c(=O)c(C)c32)c1 + COc1cc2nc(C)nc(NC(C)c3cc(N)cc(C(F)(F)F)c3)c2cc1OC1CCOC1,IC50,second compound 0.1 µM,< 0.1 nM
same,IC50,second compound 0.316 µM,< 0.1 nM
same,IC50,second compound 1 µM,< 0.1 nM
same,IC50,second compound 3.16 µM,< 0.1 nM
same,IC50,second compound 10 µM,< 0.1 nM
same,"viability, T/C","second compound 0.1 µM, first compound 0.0001 µM",26.5%
same,"viability, T/C","second compound 0.1 µM, first compound 0.000316 µM",12.7%
same,"viability, T/C","second compound 0.1 µM, first compound 0.001 µM",8.13%
same,"viability, T/C","second compound 0.1 µM, first compound 0.00316 µM",7.1%
same,"viability, T/C","second compound 0.1 µM, first compound 0.01 µM",6.58%
same,"viability, T/C",[1],5.51%
same,"viability, T/C","second compound 0.316 µM, first compound 0.0001 µM",19.8%
same,"viability, T/C","second compound 0.316 µM, first compound 0.000316 µM",10.8%
same,"viability, T/C","second compound 0.316 µM, first compound 0.001 µM",8.06%
same,"viability, T/C","second compound 0.316 µM, first compound 0.00316 µM",7.58%
same,"viability, T/C","second compound 0.316 µM, first compound 0.01 µM",6.23%
same,"viability, T/C",[7],4.76%
same,"viability, T/C","second compound 1 µM, first compound 0.0001 µM",18%
same,"viability, T/C","second compound 1 µM, first compound 0.000316 µM",8.51%
same,"viability, T/C","second compound 1 µM, first compound 0.001 µM",7.77%
same,"viability, T/C","second compound 1 µM, first compound 0.00316 µM",6.73%
same,"viability, T/C","second compound 1 µM, first compound 0.01 µM",5.93%
same,"viability, T/C",[13],4.86%
same,"viability, T/C","second compound 3.16 µM, first compound 0.0001 µM",14.4%
same,"viability, T/C","second compound 3.16 µM, first compound 0.000316 µM",11%
same,"viability, T/C","second compound 3.16 µM, first compound 0.001 µM",8.06%
same,"viability, T/C","second compound 3.16 µM, first compound 0.00316 µM",5.6%
same,"viability, T/C","second compound 3.16 µM, first compound 0.01 µM",5.05%
same,"viability, T/C",[19],4.65%
same,"viability, T/C","second compound 10 µM, first compound 0.0001 µM",5.99%
same,"viability, T/C","second compound 10 µM, first compound 0.000316 µM",4.73%
same,"viability, T/C","second compound 10 µM, first compound 0.001 µM",4.46%
same,"viability, T/C","second compound 10 µM, first compound 0.00316 µM",3.12%
same,"viability, T/C","second compound 10 µM, first compound 0.01 µM",4.29%
same,"viability, T/C",[25],3.2%
CC1(C)CCC(CN2CCN(c3ccc(C(=O)NS(=O)(=O)c4ccc(NCC5CCOCC5)c([N+](=O)[O-])c4)c(Oc4cnc5[nH]ccc5c4)c3)CC2)=C(c2ccc(Cl)cc2)C1 + COc1cc2nc(C)nc(NC(C)c3cc(N)cc(C(F)(F)F)c3)c2cc1OC1CCOC1,IC50,second compound 0.1 µM,1770 nM
same,IC50,second compound 0.316 µM,1860 nM
same,IC50,second compound 1 µM,1760 nM
same,IC50,second compound 3.16 µM,1560 nM
same,IC50,second compound 10 µM,< 31.6 nM
same,"viability, T/C",[1],104%
same,"viability, T/C",[2],103%
same,"viability, T/C",[3],105%
same,"viability, T/C",[4],85.1%
same,"viability, T/C",[5],14%
same,"viability, T/C",[6],5.48%
same,"viability, T/C",[7],104%
same,"viability, T/C",[8],97.9%
same,"viability, T/C",[9],95.3%
same,"viability, T/C",[10],90.6%
same,"viability, T/C",[11],15.3%
same,"viability, T/C",[12],4.54%
same,"viability, T/C",[13],102%
same,"viability, T/C",[14],94.2%
same,"viability, T/C",[15],95.7%
same,"viability, T/C",[16],86.1%
same,"viability, T/C",[17],12.8%
same,"viability, T/C",[18],3.87%
same,"viability, T/C",[19],78.9%
same,"viability, T/C",[20],93.9%
same,"viability, T/C",[21],86%
same,"viability, T/C",[22],75.1%
same,"viability, T/C",[23],10.2%
same,"viability, T/C",[24],5.85%
same,"viability, T/C",[25],35.2%
same,"viability, T/C",[26],32.9%
same,"viability, T/C",[27],32.3%
same,"viability, T/C",[28],21.9%
same,"viability, T/C",[29],4.35%
same,"viability, T/C",[30],2.8%
